Target: 125I-streptavidin (Streptomyces avidinii, UniProt P22629)
Sequence (P22629 25-183): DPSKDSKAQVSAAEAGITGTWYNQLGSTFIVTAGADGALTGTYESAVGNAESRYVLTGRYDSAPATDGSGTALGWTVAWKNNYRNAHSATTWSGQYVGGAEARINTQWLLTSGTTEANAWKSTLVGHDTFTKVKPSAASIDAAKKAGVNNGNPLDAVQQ

## O=C1NCC(C(=O)O)N1 (stereo not shown) [2-imidazolidone-4-carboxylic acid]
  signal in scintillation proximity assay (binding to 125I-streptavidin): lower signal

From patent publication US6340588B1, “Matrices with memories” (Discovery Partners International, Inc., priority 1995, dated 2002)
